Assay results taken from publication PMC8124163 (2021).

What was measured:
[1] = test system: 22AG (DNA, G4) AGGGTTAGGGTTAGGGTTAGGG; assay: photometric titration; conditions: K+ 110 mM; K-phosphate buffer, pH 7.0, 5% v/v DMSO; compound 20 µM
[2] = test system: c-myc (DNA, G4) TGAGGGTGGGTAGGGTGGGTA; assay: photometric titration; conditions: K+ 110 mM; K-phosphate buffer, pH 7.0, 5% v/v DMSO; compound 20 µM
[3] = test system: FkitT (DNA, G4) AGGGAGGGCGCTGGGAGGAGGG; assay: FRET melting (fluorescence); conditions: K+ 10 mM, Na+ 10 mM, Li+ 90 mM; cacodylate, pH 7.0; ligand:DNA ratio 5; DNA 0.2 µM (Figure S6; Table 2 prints 0.2 mM); error ±0.5 °C
[4] = test system: a2 (DNA, G4) ACAGGGGTGTGGGGACAGGGGTGTGGGG; assay: photometric titration; conditions: K+ 110 mM; K-phosphate buffer, pH 7.0, 5% v/v DMSO; compound 20 µM
[5] = test system: FmycT (DNA, G4) TGAGGGTGGGTAGGGTGGGTA; assay: FRET melting (fluorescence); conditions: K+ 10 mM, Na+ 10 mM, Li+ 90 mM; cacodylate, pH 7.0; ligand:DNA ratio 5; DNA 0.2 µM (Figure S6; Table 2 prints 0.2 mM); error ±0.5 °C
[6] = test system: c-kit (DNA, G4) AGGGAGGGCGCTGGGAGGAGGG; assay: photometric titration; conditions: K+ 110 mM; K-phosphate buffer, pH 7.0, 5% v/v DMSO; compound 20 µM

- Kb [1]: 5.0 ± 0.6 × 10^5 M^-1
- Kb [2]: 5.9 ± 0.4 × 10^5 M^-1
- ∆Tm [3]: 1.0 °C
- Kb [4]: 6.7 ± 0.2 × 10^5 M^-1
- ∆Tm [5]: 2.2 °C
- Kb [6]: 6.9 ± 0.2 × 10^5 M^-1
Compound: COc1ccc2cc3[n+](cc2c1OP(=O)(O)O)CCc1cc2c(cc1-3)OCO2
